In EP0537575A1, “Hydrobromide of DC-89 derivative having antitumor activity” (KYOWA HAKKO KOGYO CO., LTD., priority 1991, dated 1993):
Converted amounts (≈) assume the structure as drawn.

Experiments:
HeLaS₃ cells = test: Growth inhibition test on HeLaS₃ cells (Neutral Red staining); assay type: cell-based; conditions: Homo sapiens, HeLa, 72 hours culture, absorbance 550 nm, read-out: HeLaS₃ IC₅₀
Description: HeLaS₃ cells suspended in MEM medium containing 10% fetal calf serum and 2 mM glutamine (hereinafter referred to as medium A) to a concentration of 3 × 10⁴ cells/ml were put into wells of a 96-well microtiter plate in an amount of 0.1 ml per well.
After culturing at 37°C overnight in a CO₂-incubator, 0.05 ml of a test sample appropriately diluted with medium A was added to each well.
The cells were further cultured at 37°C for 72 hours in the CO₂-incubator and the culture supernatant was removed. The residue was washed once with phosphate buffered physiological saline (PBS), and 0.1 ml of a medium containing medium A and 0.02% Neutral Red was added to each well, followed by culturing at 37°C for one hour in the CO₂-incubator to stain the cells. After removal of the culture supernatant, the cells were washed once with physiological saline, and the dye was extracted with 0.001N HCl/30% ethanol. Absorbance of the extract at 550 nm was measured with a microplate reader. By comparing the absorbance of the extract of intact cells with those of the cells treated with the test compound at known concentrations, the concentration of the test compound which inhibited growth of the cells by 50% (IC₅₀) was determined.

Sarcoma 180 tumor = test: Therapeutic effect against Sarcoma 180 tumor implanted subcutaneously in mice; assay type: in vivo, ddY-strain mice; conditions: Dose 0.70 mg/kg, intravenously, one day after implantation; tumor volume seven days after implantation
Description: Five male ddY-strain mice each weighing 18 to 20 g were used for each group as test animals, and 5 × 10⁵ Sarcoma 180 tumor cells were implanted subcutaneously into the animals at the axilla. One day after the implantation, 0.2 ml of physiological saline containing a test compound at the concentration indicated in Table 1 was intravenously administered to each mouse. T/C [T: average tumor volume (mm³) of the group treated with the test compound, C: that of the control group which received an intravenous administration of 0.2 ml of physiological saline] was determined seven days after the implantation.

[1] = test system: Bacillus subtilis ATCC6633; test: Antibacterial activity, agar dilution method; assay type: cell-based; conditions: pH 7.0
Description: (§1) Minimum inhibitory concentrations (MIC) of Compound (I) against various bacteria were determined by the agar dilution method (pH 7.0).

[2] = test system: Micrococcus luteus ATCC9341; test: Antibacterial activity, agar dilution method; assay type: cell-based; conditions: pH 7.0
Description: as §1

[3] = test system: Staphylococcus aureus 209-P; test: Antibacterial activity, agar dilution method; assay type: cell-based; conditions: pH 7.0
Description: as §1

[4] = test system: Staphylococcus aureus 6538-P; test: Antibacterial activity, agar dilution method; assay type: cell-based; conditions: pH 7.0
Description: as §1

[5] = test system: Staphylococcus epidermidis S1318; test: Antibacterial activity, agar dilution method; assay type: cell-based; conditions: pH 7.0
Description: as §1

[6] = Stability in solution for preparing a freeze-dried preparation (HPLC); assay type: physicochemical; conditions: for Residual Rate: 1 mg/ml in water with 50 mg lactose and 0.5 mg citric acid per ml, 25°C
Description: In 1 ml of distilled water was dissolved 50 mg of lactose and 0.5 mg of citric acid. Compound (I) or Compound (III) was dissolved in the solution to a concentration of 1 mg/ml. The test solution was poured in a vial, and kept in a thermostat at 25°C. The concentration of Compound (I) or Compound (III) in the solution was determined by High Performance Liquid Chromatography (HPLC) with the elapse of time. The concentration of each test compound in the test solution just after the dissolution was defined as 100 %. The residual rate (%) was calculated according to the following equation. [formula]

- IC50 (HeLaS₃ cells): 31 nM
- MIC [1]: 6.25 µg/mL (≈ 8.95 µM)
- MIC [2]: 25 µg/mL (≈ 35.8 µM)
- MIC [3]: 6.25 µg/mL (≈ 8.95 µM)
- MIC [4]: 6.25 µg/mL (≈ 8.95 µM)
- MIC [5]: 6.25 µg/mL (≈ 8.95 µM)
- Residual Rate ([6]; Time 0 hr (defined as 100 %)): 100%
- Residual Rate ([6]; Time 3 hr): 99%
- Residual Rate ([6]; Time 6 hr): 98%
- stability in solution (in words) ([6]; compared with Compound (III), results of Table 3): improved stability in solution
Structure (SMILES): COC(=O)c1c(C)[nH]c2c(OC(=O)N3CCN(C)CC3)cc3c(c12)C(CBr)CN3C(=O)c1cc2cc(OC)c(OC)c(OC)c2[nH]1 (centres unmarked) [Compound (I)]
- Sarcoma 180 T/C (Sarcoma 180 tumor): 0.095
